ChEMBL document CHEMBL5154812, “Development of novel urea-based ATM kinase inhibitors with subnanomolar cellular potency and high kinome selectivity” (Eur J Med Chem, 2022)
≈ marks a conversion by molar mass, not a printed value. Values belong to the compound of their own block, whether it stands above or below them.

Legend:
[1] = target: T1, Serine-protein kinase ATM (Homo sapiens, UniProt Q13315); assay: Inhibition of ATM (unknown origin) by FRET assay
[2] = target: T1, Serine-protein kinase ATM; assay: Inhibition of ATM in human A549 cells assessed as reduction in etoposide-stimulated KAP1 phosphorylation by In-Cell-Western assay; assay type: cell-based
[3] = target: Serine/threonine-protein kinase ATR (Homo sapiens) (UniProt Q13535); assay: Inhibition of ATR (unknown origin) assessed as residual activity at 1 uM relative to control
[4] = species on record: Homo sapiens; assay: Selectivity ratio for inhibition of ATR (unknown origin) to inhibition of ATM (unknown origin)
[5] = target: Serine/threonine-protein kinase mTOR (Homo sapiens) (UniProt P42345); assay: Inhibition of mTOR (unknown origin) assessed as residual activity at 1 uM relative to control
[6] = target: T2, Phosphatidylinositol 4,5-bisphosphate 3-kinase catalytic subunit delta isoform (Homo sapiens) (UniProt O00329); assay: Inhibition of PI3Kdelta (unknown origin) assessed as residual activity at 1 uM relative to control
T2 sequence (whole entry): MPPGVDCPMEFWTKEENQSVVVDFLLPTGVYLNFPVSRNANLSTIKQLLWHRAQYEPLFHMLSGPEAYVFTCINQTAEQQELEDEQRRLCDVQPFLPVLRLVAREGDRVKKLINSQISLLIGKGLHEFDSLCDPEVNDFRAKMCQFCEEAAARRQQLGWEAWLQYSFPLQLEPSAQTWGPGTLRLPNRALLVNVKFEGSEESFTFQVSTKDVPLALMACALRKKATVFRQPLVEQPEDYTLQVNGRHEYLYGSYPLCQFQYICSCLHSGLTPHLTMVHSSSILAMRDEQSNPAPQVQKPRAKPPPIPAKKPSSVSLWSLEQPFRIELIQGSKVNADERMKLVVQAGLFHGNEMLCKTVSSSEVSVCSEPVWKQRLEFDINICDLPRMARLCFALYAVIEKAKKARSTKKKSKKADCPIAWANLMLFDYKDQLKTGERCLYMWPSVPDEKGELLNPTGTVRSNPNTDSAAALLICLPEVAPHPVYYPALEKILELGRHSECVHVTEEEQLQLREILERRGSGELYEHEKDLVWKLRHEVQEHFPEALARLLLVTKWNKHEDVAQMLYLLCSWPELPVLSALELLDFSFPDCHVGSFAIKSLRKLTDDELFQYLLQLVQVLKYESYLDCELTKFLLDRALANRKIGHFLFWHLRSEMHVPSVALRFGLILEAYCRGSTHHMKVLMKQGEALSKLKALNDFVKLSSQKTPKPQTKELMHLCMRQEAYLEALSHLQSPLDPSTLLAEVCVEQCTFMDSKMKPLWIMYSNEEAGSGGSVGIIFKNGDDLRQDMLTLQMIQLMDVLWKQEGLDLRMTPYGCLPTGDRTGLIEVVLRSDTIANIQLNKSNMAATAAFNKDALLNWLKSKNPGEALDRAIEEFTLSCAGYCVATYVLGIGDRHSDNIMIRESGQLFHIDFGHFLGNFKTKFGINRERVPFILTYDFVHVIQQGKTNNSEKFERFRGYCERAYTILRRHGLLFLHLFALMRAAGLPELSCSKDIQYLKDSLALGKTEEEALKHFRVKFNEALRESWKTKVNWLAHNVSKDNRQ

[7] = target: Phosphatidylinositol 4,5-bisphosphate 3-kinase catalytic subunit gamma isoform (Homo sapiens) (UniProt P48736); assay: Inhibition of PI3Kgamma (unknown origin) assessed as residual activity at 1 uM relative to control
[8] = target: Phosphatidylinositol 4,5-bisphosphate 3-kinase catalytic subunit alpha isoform (Homo sapiens) (UniProt P42336); assay: Inhibition of PI3Kalpha (unknown origin) assessed as residual activity at 1 uM relative to control
[9] = target: Phosphatidylinositol 4,5-bisphosphate 3-kinase catalytic subunit beta isoform (Homo sapiens) (UniProt P42338); assay: Inhibition of PI3Kbeta (unknown origin) assessed as residual activity at 1 uM relative to control
[10] = target: Leucine-rich repeat serine/threonine-protein kinase 2 (Homo sapiens) (UniProt Q5S007); assay: Inhibition of LRRK2 (unknown origin) assessed as residual activity at 1 uM relative to control
[11] = target: DNA-dependent protein kinase catalytic subunit (Homo sapiens) (UniProt P78527); assay: Inhibition of DNA-PK (unknown origin) assessed as residual activity at 1 uM relative to control
[12] = Metabolic stability in mouse liver microsomes assessed as parent compound remaining after 120 mins
[13] = Thermodynamic solubility of compound in PBS at pH 7.4; assay type: physicochemical; conditions: read-out: Therm_solubility

T1 sequence (Q13315 whole entry): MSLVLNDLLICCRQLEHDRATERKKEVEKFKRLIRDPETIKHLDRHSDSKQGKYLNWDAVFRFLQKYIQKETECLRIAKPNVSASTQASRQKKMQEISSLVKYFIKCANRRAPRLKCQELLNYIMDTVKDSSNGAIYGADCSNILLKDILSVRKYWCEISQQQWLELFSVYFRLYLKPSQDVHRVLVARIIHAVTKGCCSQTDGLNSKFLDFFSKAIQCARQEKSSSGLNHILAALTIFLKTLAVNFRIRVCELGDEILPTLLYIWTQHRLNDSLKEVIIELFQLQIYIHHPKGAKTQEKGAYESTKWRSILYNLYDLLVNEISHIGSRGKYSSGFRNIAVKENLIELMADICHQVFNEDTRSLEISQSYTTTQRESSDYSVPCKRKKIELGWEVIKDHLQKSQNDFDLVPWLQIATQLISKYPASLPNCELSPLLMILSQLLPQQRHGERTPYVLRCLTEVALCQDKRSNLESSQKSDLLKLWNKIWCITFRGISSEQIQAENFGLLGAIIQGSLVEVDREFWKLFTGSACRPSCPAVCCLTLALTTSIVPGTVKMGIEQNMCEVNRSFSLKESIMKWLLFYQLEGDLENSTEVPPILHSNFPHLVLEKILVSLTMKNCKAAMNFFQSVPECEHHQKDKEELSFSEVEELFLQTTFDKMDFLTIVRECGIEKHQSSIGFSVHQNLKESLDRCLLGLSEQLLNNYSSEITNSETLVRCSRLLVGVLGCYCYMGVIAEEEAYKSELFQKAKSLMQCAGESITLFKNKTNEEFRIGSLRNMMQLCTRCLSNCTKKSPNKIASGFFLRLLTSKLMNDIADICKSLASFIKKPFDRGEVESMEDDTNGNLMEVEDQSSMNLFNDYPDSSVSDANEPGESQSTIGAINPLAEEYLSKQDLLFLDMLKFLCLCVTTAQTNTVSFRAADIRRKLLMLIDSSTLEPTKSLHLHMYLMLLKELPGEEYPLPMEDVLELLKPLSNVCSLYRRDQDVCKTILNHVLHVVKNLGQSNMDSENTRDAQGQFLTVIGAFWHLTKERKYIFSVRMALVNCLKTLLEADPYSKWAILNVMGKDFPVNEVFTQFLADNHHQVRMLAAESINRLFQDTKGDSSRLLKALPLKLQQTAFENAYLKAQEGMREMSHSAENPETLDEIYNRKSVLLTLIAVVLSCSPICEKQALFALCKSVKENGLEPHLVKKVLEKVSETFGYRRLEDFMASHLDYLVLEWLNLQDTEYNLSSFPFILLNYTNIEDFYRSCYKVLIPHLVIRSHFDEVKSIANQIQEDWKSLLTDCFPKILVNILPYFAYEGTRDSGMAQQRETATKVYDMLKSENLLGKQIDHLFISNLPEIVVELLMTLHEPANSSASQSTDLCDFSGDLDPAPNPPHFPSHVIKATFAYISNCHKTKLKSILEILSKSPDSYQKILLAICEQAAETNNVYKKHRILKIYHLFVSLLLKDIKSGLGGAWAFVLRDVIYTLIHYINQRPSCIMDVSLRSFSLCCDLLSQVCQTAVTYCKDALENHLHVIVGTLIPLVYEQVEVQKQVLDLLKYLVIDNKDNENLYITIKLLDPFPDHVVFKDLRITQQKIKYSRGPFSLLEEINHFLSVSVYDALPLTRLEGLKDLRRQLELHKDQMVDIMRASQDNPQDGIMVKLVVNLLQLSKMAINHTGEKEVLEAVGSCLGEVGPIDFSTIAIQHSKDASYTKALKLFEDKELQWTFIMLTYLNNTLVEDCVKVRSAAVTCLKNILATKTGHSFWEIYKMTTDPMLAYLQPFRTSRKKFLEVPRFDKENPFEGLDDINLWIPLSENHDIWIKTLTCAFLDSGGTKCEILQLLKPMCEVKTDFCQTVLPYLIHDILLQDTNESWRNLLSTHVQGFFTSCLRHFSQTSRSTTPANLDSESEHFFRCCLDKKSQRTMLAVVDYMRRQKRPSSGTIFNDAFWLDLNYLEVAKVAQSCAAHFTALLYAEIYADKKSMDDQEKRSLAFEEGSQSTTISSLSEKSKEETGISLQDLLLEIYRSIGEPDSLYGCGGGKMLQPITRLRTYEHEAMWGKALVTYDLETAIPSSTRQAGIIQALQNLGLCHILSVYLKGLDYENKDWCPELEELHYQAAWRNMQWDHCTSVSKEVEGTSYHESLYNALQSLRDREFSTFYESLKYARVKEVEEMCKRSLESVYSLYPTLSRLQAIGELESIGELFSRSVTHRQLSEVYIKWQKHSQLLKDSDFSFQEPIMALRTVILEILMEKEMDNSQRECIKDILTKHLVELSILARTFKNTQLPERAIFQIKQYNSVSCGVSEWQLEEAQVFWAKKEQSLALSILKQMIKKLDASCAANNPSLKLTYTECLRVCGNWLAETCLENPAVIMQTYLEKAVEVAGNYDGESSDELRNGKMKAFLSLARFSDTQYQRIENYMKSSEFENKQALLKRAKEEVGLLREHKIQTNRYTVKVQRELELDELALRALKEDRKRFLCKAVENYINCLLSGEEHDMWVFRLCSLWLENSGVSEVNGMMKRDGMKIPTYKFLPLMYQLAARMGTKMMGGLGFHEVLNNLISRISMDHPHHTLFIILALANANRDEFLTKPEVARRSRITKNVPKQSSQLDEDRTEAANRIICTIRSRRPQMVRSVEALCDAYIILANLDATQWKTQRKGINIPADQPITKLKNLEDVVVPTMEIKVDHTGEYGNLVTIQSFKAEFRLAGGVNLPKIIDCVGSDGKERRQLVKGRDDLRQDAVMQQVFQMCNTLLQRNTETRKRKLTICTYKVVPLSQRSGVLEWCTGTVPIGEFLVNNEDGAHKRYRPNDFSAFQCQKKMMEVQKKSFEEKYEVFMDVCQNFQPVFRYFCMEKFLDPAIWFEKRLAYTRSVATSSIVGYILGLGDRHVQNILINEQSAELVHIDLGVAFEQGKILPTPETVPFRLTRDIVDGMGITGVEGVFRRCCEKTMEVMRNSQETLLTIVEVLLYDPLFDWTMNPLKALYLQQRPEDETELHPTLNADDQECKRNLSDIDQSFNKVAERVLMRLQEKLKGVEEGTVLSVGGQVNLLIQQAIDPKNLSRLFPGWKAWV
Phosphatidylinositol 4,5-bisphosphate 3-kinase catalytic subunit beta isoform (Homo sapiens), sequence (P42338 whole entry, looked up, canonical isoform): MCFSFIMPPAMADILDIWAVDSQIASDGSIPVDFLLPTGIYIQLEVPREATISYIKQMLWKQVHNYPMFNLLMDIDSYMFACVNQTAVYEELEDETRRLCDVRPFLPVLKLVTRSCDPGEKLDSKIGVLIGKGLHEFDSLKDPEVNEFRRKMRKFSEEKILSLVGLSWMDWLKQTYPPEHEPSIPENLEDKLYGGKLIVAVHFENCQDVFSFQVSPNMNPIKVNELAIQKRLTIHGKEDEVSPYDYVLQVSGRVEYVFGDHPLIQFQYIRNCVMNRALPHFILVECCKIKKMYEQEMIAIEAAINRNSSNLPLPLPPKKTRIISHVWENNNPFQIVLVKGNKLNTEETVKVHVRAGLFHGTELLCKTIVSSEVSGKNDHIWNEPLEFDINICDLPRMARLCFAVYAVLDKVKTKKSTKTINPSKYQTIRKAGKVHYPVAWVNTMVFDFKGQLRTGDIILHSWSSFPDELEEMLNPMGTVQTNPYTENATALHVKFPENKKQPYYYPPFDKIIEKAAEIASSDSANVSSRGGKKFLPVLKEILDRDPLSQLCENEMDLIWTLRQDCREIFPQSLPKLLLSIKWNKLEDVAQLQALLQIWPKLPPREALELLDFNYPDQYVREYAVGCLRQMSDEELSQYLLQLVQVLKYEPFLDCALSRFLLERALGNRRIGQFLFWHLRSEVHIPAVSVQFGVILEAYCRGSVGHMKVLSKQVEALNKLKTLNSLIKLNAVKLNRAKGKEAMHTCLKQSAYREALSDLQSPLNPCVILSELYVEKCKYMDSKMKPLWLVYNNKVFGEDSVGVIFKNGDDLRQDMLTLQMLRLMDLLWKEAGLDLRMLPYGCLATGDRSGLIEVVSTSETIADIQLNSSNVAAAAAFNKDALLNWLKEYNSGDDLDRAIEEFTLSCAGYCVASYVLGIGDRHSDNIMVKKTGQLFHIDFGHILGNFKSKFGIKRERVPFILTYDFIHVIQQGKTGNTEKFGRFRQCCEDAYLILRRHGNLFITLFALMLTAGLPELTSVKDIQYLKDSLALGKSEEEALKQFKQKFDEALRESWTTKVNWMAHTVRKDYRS

SMILES: COCCn1c(=O)n(C)c2cnc3ccc(-c4ccc(NC(=O)NCCN(C)C)c(F)c4)cc3c21
- Activity [3]: 104%
- IC50 [1]: < 1 nM
- IC50 [2]: 0.71 nM
- Selectivity ratio [4]: > 1000
- Activity [5]: 4%
- Activity [6]: 35%
- Activity [7]: 80%
- Activity [8]: 28%
- Activity [9]: 87%
- Activity [10]: 92%
- Activity [11]: 8%
- remaining at 2 h [12]: 78%

SMILES: COCCn1c(=O)n(C)c2cnc3ccc(-c4ccc(NC(=O)NCCN(C)C)cc4F)cc3c21
- IC50 [1]: < 1 nM
- IC50 [2]: 0.65 nM

SMILES: COCCn1c(=O)n(C)c2cnc3ccc(-c4ccc(NC(=O)NCCN(C)C)c(C)c4F)cc3c21
- IC50 [1]: 37 nM

SMILES: COCCn1c(=O)n(C)c2cnc3ccc(-c4ccc(NC(=O)N5CCC(N)CC5)cc4)cc3c21
- IC50 [1]: 16 nM

SMILES: CN(C)CCNC(=O)Nc1ccc(-c2ccc3ncc4c(c3c2)n(C2CCOCC2)c(=O)n4C)cc1
- IC50 [1]: < 1 nM
- solubility thermodynamic [13]: 39 µM (≈ 19.1 µg/mL)

SMILES: COCCn1c(=O)n(C)c2cnc3ccc(-c4ccc(NC(=O)N5CCN(C)CC5)cc4F)cc3c21
- IC50 [1]: 101 nM

SMILES: COCCn1c(=O)n(C)c2cnc3ccc(-c4ccc(NC(=O)NCCN(C)C)c(F)c4Cl)cc3c21
- IC50 [1]: 32 nM

SMILES: COCCn1c(=O)n(C)c2cnc3ccc(-c4ccc(NC(=O)N5CCC(NC(=O)OC(C)(C)C)CC5)cc4)cc3c21
- IC50 [1]: 2 nM

SMILES: COCCn1c(=O)n(C)c2cnc3ccc(-c4ccc(NC(=O)N5CCN(C)CC5)c(C)c4F)cc3c21
- IC50 [1]: 1580 nM

SMILES: CN(C)CCCOc1ccc(-c2ccc3ncc4c(c3c2)n(C2CCOCC2)c(=O)n4C)cn1
- solubility thermodynamic [13]: 2970 µM (≈ 1370 µg/mL)

SMILES: COCCn1c(=O)n(C)c2cnc3ccc(-c4ccc(NC(=O)N5CCN(C)CC5)c(F)c4F)cc3c21
- IC50 [1]: 212 nM

SMILES: COCCn1c(=O)n(C)c2cnc3ccc(-c4ccc(NC(=O)N5C[C@@H]6C[C@H]5CN6C)cc4)cc3c21
- IC50 [1]: 25 nM

SMILES: COCCn1c(=O)n(C)c2cnc3ccc(-c4ccc(NC(=O)N5CCN(C)CC5)cc4)cc3c21
- IC50 [1]: 78 nM

SMILES: CN(C)CCNC(=O)Nc1ccc(-c2ccc3ncc4c(c3c2)n(C2CCOCC2)c(=O)n4C)cn1
- IC50 [1]: < 1 nM
- solubility thermodynamic [13]: 36 µM (≈ 17.6 µg/mL)

SMILES: COCCn1c(=O)n(C)c2cnc3ccc(-c4ccc(NC(=O)N5CCN(C)CC5)c(F)c4Cl)cc3c21
- IC50 [1]: 885 nM

SMILES: COCCn1c(=O)n(C)c2cnc3ccc(-c4ccc(NC(=O)N5CCN(C)CC5)c(F)c4)cc3c21
- IC50 [1]: 394 nM

SMILES: COCCn1c(=O)n(C)c2cnc3ccc(-c4ccc(NC(=O)NC5CCN(C(=O)OC(C)(C)C)CC5)cc4)cc3c21
- IC50 [1]: < 1 nM

SMILES: CCN1CCN(C(=O)Nc2ccc(-c3ccc4ncc5c(c4c3)n(CCOC)c(=O)n5C)cc2)CC1
- IC50 [1]: 159 nM

The remaining lines, values ahead:

- IC50 [1]: < 1 nM
- IC50 [2]: 1.33 nM
SMILES: COCCn1c(=O)n(C)c2cnc3ccc(-c4ccc(NC(=O)N(C)CCN(C)C)cc4)cc3c21

- IC50 [1]: < 1 nM
SMILES: COCCn1c(=O)n(C)c2cnc3ccc(-c4ccc(NC(=O)NC5CN(C)C5)cc4)cc3c21

- IC50 [1]: < 1 nM
- IC50 [2]: 0.92 nM
SMILES: COCCn1c(=O)n(C)c2cnc3ccc(-c4ccc(NC(=O)NCCN5CCC5)cc4)cc3c21

- IC50 [1]: < 1 nM
- IC50 [2]: 1.7 nM
- solubility thermodynamic [13]: 1570 µM (≈ 726 µg/mL)
SMILES: COCCn1c(=O)n(C)c2cnc3ccc(-c4ccc(NC(=O)NCCN(C)C)cc4)cc3c21

- IC50 [1]: < 1 nM
SMILES: COCCn1c(=O)n(C)c2cnc3ccc(-c4ccc(NC(=O)NC5CCCN(C)C5)cc4)cc3c21 (stereo not given)

- IC50 [1]: 158 nM
SMILES: COCCn1c(=O)n(C)c2cnc3ccc(-c4ccc(NC(=O)N5CCN(C(C)C)CC5)cc4)cc3c21

- IC50 [1]: < 1 nM
SMILES: COCCn1c(=O)n(C)c2cnc3ccc(-c4ccc(NC(=O)NC5CCNCC5)cc4)cc3c21

- IC50 [1]: < 1 nM
SMILES: COCCn1c(=O)n(C)c2cnc3ccc(-c4ccc(NC(=O)NC5CCN(C)C5)cc4)cc3c21 (stereo not given)

- Activity [3]: 109%
- IC50 [1]: < 1 nM
- IC50 [2]: 0.32 nM
- Selectivity ratio [4]: > 1000
- Activity [5]: -1%
- Activity [6]: 23%
- Activity [7]: 34%
- Activity [8]: -11%
- Activity [9]: 42%
- Activity [10]: 87%
- Activity [11]: -4%
- remaining at 2 h [12]: 50%
SMILES: COCCn1c(=O)n(C)c2cnc3ccc(-c4ccc(NC(=O)NCCN5CC(F)C5)cc4)cc3c21

- IC50 [1]: 945 nM
SMILES: COCCn1c(=O)n(C)c2cnc3ccc(-c4ccc(NC(=O)N5CCC(N(C)C)CC5)cc4)cc3c21

- IC50 [1]: < 1 nM
SMILES: COCCn1c(=O)n(C)c2cnc3ccc(-c4ccc(NC(=O)NC(C)CN(C)C)cc4)cc3c21 (stereo not given)

- IC50 [1]: < 1 nM
- IC50 [2]: 3.31 nM
SMILES: COCCn1c(=O)n(C)c2cnc3ccc(-c4ccc(NC(=O)NCCN5CC(F)(F)C5)cc4)cc3c21
